Three compounds from patent US10548894B2, “Combination therapy” (Array BioPharma Inc., priority 2013, dated 2020) can be followed below.

Molecules are shown by their SMILES.

Data set [1] in a line: Clinical dose finding and tolerability (RP2D/MTD) in patients. The data set is classed as in vivo. The note with it: for MTD: QD. From the text:
The selection of the starting dose follows the ICH S9 guidelines for choosing a starting a dose for a first-in-human trial conducted in patients with cancer, and is shown in Table 6-2.
Table 3 describes the starting doses and the provisional dose levels of study treatments for the combinations that may be evaluated during this trial. Additional dose levels not currently specified may be enrolled and additional patients may be enrolled at a dose level already tested if such changes are deemed necessary to provide optimal safety and tolerability, pharmacokinetic, and pharmacodynamic data.

For data set [2], the system named is HMEX1906 primary melanoma model (HMEX1906-R5). In words: Efficacy in HMEX1906-R5 primary melanoma model resistant to Compound of Formula (I). The settings on record: PO; Compound C 250 mg/kg qd×21; Compound of Formula (I) 5 mg/kg bid×21. The data set is classed as in vivo. The procedure: Objective: To evaluate the efficacy of the combination of the Compound of Formula (I) and the CDK 4 inhibitor Compound C in the HMEX1906 primary melanoma model that is grown in the presence of and is resistant to 5 mg/kg the Compound of Formula (I) (HMEX1906-R5)
Drug formulation: Compound C is formulated in 0.5% MC/0.5% Tween80 and the Compound of Formula (I) is formulated in 20% PEG300/3% ETPGS.
Tumors are chopped/minced into cell line like suspension (tumors homogenized). 7 mL of matrigel added and 1.5 mL of HBSS. Suspension warmed in palm until Matrigel is thick and implanted with a 18G needle s.c right flank of female nude mice.
The mice were assigned to the following groups at 18 days post implant with an average tumor volume of 266 mm^3 and average body weight of 25 grams.
Groups: 10 mice/group, route PO, dose volume 0.2 mL
Group 1: Vehicle, 0 mg/kg bid×14
Group 2: Compound C, 250 mg/kg qd×21
Group 3: Compound of Formula (I), 5 mg/kg bid×21
Group 4: Compound C 250 mg/kg qd×21+Compound of Formula (I) 5 mg/kg bid×21

The next data set has as its system COLO 741. In words: xCELLigence real-time impedance growth assay. Format: cell-based. The settings on record: COLO 741, absence of FGF2; Formula (I) 500 nM, Compound H 1 uM. The procedure:
(§1) Shown is the growth in real time of the (Top A) COLO 741 and (Bottom B) SK-MEL-5 cell lines as measured using the xCELLigence impedance-based cell analyzer as discussed in Example 5. Where indicated FGF2 and Compound H were supplemented to the media at concentrations of 100 ng/ml, and 1 uM, respectively. The Compound of Formula (I) was used at 500 nM in (A) and 100 nM (B).
(§2) For CellTiter-Glo™ assays, cells were dispensed into tissue culture treated 96-well plates (Costar, catalog number 3904) with a final volume of 80 μL of medium and at density of 3000 cells per well. 12 to 24 hrs after plating, 20 μL of each compound dilution series were transferred to plates containing the cells, resulting in compound concentration ranges of 2700 nM to 3.7 nM by 3-fold dilutions and a final DMSO concentration of 0.16%. The total volume in each well was […]. Plates were incubated for 72 hrs and the effects of compounds on cell proliferation was determined using the CellTiter-Glo™ Luminescent Cell Viability Assay (CTG, Promega) and a Victor™ X4 plate reader (Perkin Elmer). For real-time growth assays cells were seeded into xCELLigence E-plates (Roche catalogue number 05232368001) at a density of 4000 cells per well in a total of 90 μl of media and 24 hrs after plating, 11 μl of media with or without compound was added to the wells. 2-4 replicate wells were plated for all cell lines and treatment groups with the exception of LGX818+FGF2 treated COLO 741 cells (N=1). Where indicated final concentrations of compounds and growth factor were 1 uM for Compound H, 100 ng/ml for FGF2, and either 100 nM (SK-MEL-5) or 500 nM (COLO 741) for the Compound of Formula (I). Cells were continuously monitored every two hours for seven days with the xCELLigence real-time impedance based cell analyzer. Impedance was measured using the electrodes on the E-plates, with increasing surface area coverage of cells creating greater electrode impedance. […] In all cases cell index values were normalized to a timepoint immediately following the addition of compound.
(§3) To determine whether rescue of BRAFV600E melanoma cell lines by FGF2 was dependent on FGFR signaling, we examined whether the selective FGFR inhibitor Compound H could prevent FGF2-mediated rescue. Two cell lines which were rescued to varying degrees by FGF2 (COLO 741, and SK-MEL-5, Table 8-1) were cultured in media containing the Compound of Formula (I) and FGF2 either in the presence or absence of Compound H and growth measured in real time.

The next data set deals with SK-MEL-5. In words: xCELLigence real-time impedance growth assay. Format: cell-based. The note with it: SK-MEL-5, absence of FGF2; Formula (I) 100 nM, Compound H 1 uM. The procedure:
as §1, §2, §3

In data set [3] the test system is MAPK and PIK3C signaling in SK-MEL-5 cells. Briefly: Western analysis of phosphorylated MEK1/2, ERK1/2 and AKT. The data set is classed as cell-based. The note with it: SK-MEL-5, 2 and 24 hours, no FGF2; Formula (I) 100 nM, Compound H 1.0 uM. The procedure:
(§4) FIG. 4—The effect on signaling of combining the Compound of Formula (I) with the FGFR inhibitor Compound H and the FGFR ligand FGF2 in two BRAFV600E mutant melanoma-derived cell lines in vitro. Shown is western analysis of both phosphorylated and total AKT, ERK1/2, and MEK1/2 proteins isolated from (A) […] and (B) SK-MEL-5 cells following treatment with the Compound of Formula (I) (100 nM), FGF2 (100 ng/ml), and Compound H (1 uM). Cells were treated for 2 and 24 hours with agents singly and in combination as discussed in Example 5.
(§5) For Western analysis, cells were plated in 6-well (Costar, catalog number 3506) plates at a density of 5×10^5 cells per well in 2.0 ml of complete culture medium. Twelve to 24 hrs after plating, cells were treated with the various compounds, and in all experiments the Compound of Formula (I), Compound H, and FGF2 were used at final concentrations of 100 nM, 1.0 uM, and 100 ng/ml, respectively. Cells were harvested 2, and 24 hrs following the addition of compound in freshly prepared cell lysis buffer (Cell Signaling Technology Catalog number 9803); supplemented with both phosphatase (PhosStop, Roche Catalog number 04906845001) and protease inhibitors (Roche, catalog number 11697498001). Proteins from cell lysates were separated by electrophoresis though a NuPAGE 4-12% Bis-Tis midi gel (Novex, catalog number WG1402BX10), transferred to nitrocellulose membranes, which were subsequently incubated with antibodies from Cell Signaling Technology (Danvers, Mass., USA) recognizing p-AKT (S473, Catalog number 4058), total AKT (Catalog number 2920), p-ERK1/2 (T202/Y204, catalog number 9101), total ERK1/2 (catalog number 9107), p-MEK1/2 (S217/221, catalog number 9121) and β-actin (Ambion, catalog number AM4302). Western blots were visualized following incubation with IRDye 680RD Goat anti-Rabbit IgG (Li-Cor, Catalog number 926-68071) and IRDye 800 CW Goat anti-Mouse IgG (Li-Cor, Catalog number 926-32210) and scanning with an Odyssey Infrared Imager System (Li-Cor, Lincoln, Nebr., USA).
(§6) To investigate whether either restored MAPK or activated PIK3C signaling might underlie FGF2-mediated rescue the effects of FGF2 on MAPK and PIK3C signaling were examined via western-blot analysis of phosphorylated MEK1/2 (MAP2K1/2), ERK1/2 (MAPK1/2) and AKT1/2/3.

Data set [4] has as its system MAPK and PIK3C signaling in COLO 741 cells. The data set is described as above. The settings on record: COLO 741, 2 and 24 hours, no FGF2; Formula (I) 100 nM, Compound H 1.0 uM. Format: cell-based. The procedure: as §4, §5, §6

For the compound `CN(C)C(=O)c1cc2cnc(Nc3ccc(N4CCNCC4)cn3)nc2n1C1CCCC1` [Compound C], the “maximum tolerated dose (MTD)” value in data set [1] (currently tested at the 900 mg QD dose level) was “has not been achieved”. In data set [2], the “Mean change of body weight” value is recorded as 5.3 ± 1.4 % ± SEM, the “Mean change of tumor volume” value is reported as 86 ± 26 mm3 ± SEM, the “Mean change of tumor volume vs control (T/C)” value amounted to 4% and the “Survival (Survivors/Total)” value is recorded as 10/10.
As to `Nc1cc(C(F)(F)F)c(-c2cc(N3CCOCC3)nc(N3CCOCC3)n2)cn1` [Compound F, 5-(2,6-di-morpholin-4-yl-pyrimidin-4-yl)-4-trifluoromethyl-pyridin-2-ylamine], the MTD in data set [1] came out at 100 mg.
Consider `CCN1CCN(c2ccc(Nc3cc(N(C)C(=O)Nc4c(Cl)c(OC)cc(OC)c4Cl)ncn3)cc2)CC1` [Compound H], for which the MTD in data set [1] is recorded as 125 mg. Also, the “growth in real time (cell index)” value in the data set with COLO 741 and in the data set with SK-MEL-5 was “did not affect the proliferation” each time. Also, the “MAPK signaling (phosphorylated MEK and ERK levels)” value in data set [3] and in data set [4] was “neither FGF2 nor Compound H when added as single agents affected signaling” in each case.
